Results: US20220226319A1, “TALTIRELIN USE” (EOLAS RESEARCH LIMITED, priority 2019, published 2022)
Entries after “also recorded” stand apart in the source; their conditions may differ.

Experiments:
Type in all cases: cell-based
[1] = system: FOXO1 gene expression in fibroblasts; experiment: FOXO1 gene expression in fibroblasts; settings: older cells (passage 20), P<0.01, FIG. 1
Description: (§1) Experiments have shown that taltirelin modulates the gene expression in fibroblasts of a variety of genes involved in processes underlying ageing.
(§2) FIG. 1 illustrates the increased expression of FOXO1 and FOXO3 genes that occurs in fibroblasts by administration of taltirelin. From the results, it can be seen that the administration of taltirelin in older cells (passage 20) led to a large increase in the expression of FOXO1 (>5×) and FOXO3 (>1.5×) compared to untreated controls. The results were statistically significant with P<0.01.

[2] = system: NFE2L2 gene expression in fibroblasts; experiment: NFE2L2 gene expression in fibroblasts; settings: older cells (passage 20), FIG. 2
Description: (§3) FIG. 2 illustrates the increased expression of EFNB1, NFE2L2, SERPINE1 and SIRT1 genes in fibroblasts that occurs by administration of taltirelin.

[3] = system: FOXO3 gene expression in fibroblasts; experiment: FOXO3 gene expression in fibroblasts; settings: older cells (passage 20), P<0.01, FIG. 1
Description: as §1, §2

[4] = system: EFNB1 gene expression in fibroblasts; experiment: EFNB1 gene expression in fibroblasts; settings: older cells (passage 20), FIG. 2
Description: as §3

[5] = system: SIRT1 gene expression in fibroblasts; experiment: SIRT1 gene expression in fibroblasts; settings: older cells (passage 20), FIG. 2
Description: as §3

[6] = system: SERPINE1 gene expression in fibroblasts; experiment: SERPINE1 gene expression in fibroblasts; settings: older cells (passage 20), FIG. 2
Description: as §3

## CN1C(=O)C[C@@H](C(=O)N[C@@H](Cc2cnc[nH]2)C(=O)N2CCC[C@H]2C(N)=O)NC1=O [taltirelin, N-[[(4S)-Hexahydro-1-methyl-2,6-dioxo-4-pyrimidinyl]carbonyl]-L-histidyl-L-prolinamide]
[1]
  increase in the expression of FOXO1 compared to untreated controls: > 5 ×
[2]
  expression of NFE2L2 gene compared to untreated controls: statistically significant (P<0.01) increase; also recorded: significantly increased
[3]
  increase in the expression of FOXO3 compared to untreated controls: > 1.5 ×
[4]
  expression of EFNB1 gene compared to untreated controls: statistically significant (P<0.01) increase; also recorded: significantly increased
[5]
  expression of SIRT1 gene compared to untreated controls: statistically significant (P<0.01) increase; also recorded: increased significantly
[6]
  expression of SERPINE1 gene compared to untreated controls: statistically significant (P<0.01) decrease; also recorded: significantly inhibited
